# Reference: paper PMC5887109, “Unravelling the Molecular Determinants of Bee Sensitivity to Neonicotinoid Insecticides” (Current Biology, 2018)
# Experiments:
# [1] = target: nicotinic acetylcholine receptor (nAChR); experiment: [3H]imidacloprid displacement, honeybee head membrane preparations; assay type: binding, A. mellifera; conditions: honeybee head membranes; 95% CI given in text
# Experimental: [^3H]imidacloprid (specific activity 1.406 GBq μmol^−1) displacement studies were conducted using membrane preparations isolated from frozen (−80°C) honeybee and bumble bee heads, respectively, following previously published protocols. Briefly, bee heads weighing 10cg were homogenized in 200cml ice-cold 0.1cM potassium phosphate buffer, pH 7.4 containing 95cmM sucrose using a motor-driven Ultra Turrax blender. […] Assays were performed in a 96-well microtiter plate with bonded GF/C filter membrane (Packard UniFilter-96, GF/C) and consisted of 200 μL of homogenate (0.48cmg protein), 25 μL of [^3H]imidacloprid (576cpM) and 25 μL of competing ligand. Ligand concentrations used ranged from 0.001 to 10c000cnM and were tested at least in duplicate per competition assay. The assay was started by the addition of homogenate and incubated for 60cmin at room temperature. Bound [^3H]imidacloprid was quantified by filtration into a second 96-well filter plate (conditioned with ice-cold 100cmM potassium phosphate buffer, pH 7.4 (including BSA 5cg liter−1)) using a commercial cell harvester (Brandel). […] Each well was then loaded with 25 μL of scintillation cocktail (Microszint-O-Filtercount, Packard) and the plate counted in a Topcount scintillation counter (Packard). Non-specific binding was determined using a final concentration of 10cμM unlabelled imidacloprid. […]
# CYP9Q4 = CYP9Q4 (Bombus terrestris, UniProt A0A9B0BBT5); experiment: Metabolism by recombinant CYP9Q4/CPR microsomes, LC-MS/MS
# From the text: (§1) All bee P450 (see Table S3 for accession numbers) and house fly NADPH-dependent cytochrome P450 reductase (CPR) (GenBank accession number Q07994) genes were obtained by gene synthesis (Geneart, CA, USA) and inserted into the pDEST8 expression vector (Invitrogen). Codon optimization of all bee genes was used to optimize expression in lepidopteran cell lines. The PFastbac1 vector with no inserted DNA was used to produce a control virus. The recombinant baculovirus DNA was constructed and transfected into Trichoplusia ni (High five cells, Thermo Fisher) using the Bac-to-Bac baculovirus expression system (Invitrogen) according to the manufacturer’s instructions. The titer of the recombinant virus was determined following protocols of the supplier. High Five cells grown to a density of 2 × 10^6 cells ml^-1 were co-infected with recombinant baculoviruses containing each bee P450 and CPR with a range of MOI (multiplicity of infection) ratios to identify the optimal conditions. Control cells were co-infected with the baculovirus containing vector with no insert (ctrl-virus) and the recombinant baculovirus expressing CPR using the same MOI ratios. Ferric citrate and δ-aminolevulinic acid hydrochloride were added to a final concentration of 0.1 mM at the time of infection and 24 h after infection to compensate the low levels of endogenous heme in the insect cells. After 48 h, cells were harvested, washed with PBS, and microsomes of the membrane fraction prepared according to standard procedures and stored at −80°C [31]. Briefly, pellets were homogenized for 30 s in 0.1M Na/K-phosphate buffer, pH 7.4 containing 1mM EDTA and DTT and 200mM sucrose using a Fastprep (MP Biomedicals), filtered through miracloth and centrifuging for 10 min at 680 g at 4°C. The supernatant was then centrifuged for 1 h at 100,000 g at 4°C, with the pellet subsequently resuspended in 0.1M Na/K-phosphate buffer, pH 7.6 containing 1mM EDTA and DTT and 10% glycerol using a Dounce tissue grinder. P450 expression and functionality was estimated by measuring CO-difference spectra in reduced samples using a Specord 200 Plus Spectrophotometer (Analytik Jena) and scanning from 500 nm to 400 nm. The protein content of samples was determined using Bradford reagent (Sigma) and bovine serum albumin (BSA) as a reference.
# (§2) The total assay volume was 200 μL using three replicates for each data point. […] The assay was stopped by the addition of ice-cold acetonitrile (to 80% final concentration), centrifuged for 10 min at 3000 g and the supernatant subsequently analyzed by tandem mass spectrometry as described previously. […] Substrate turnover from two independent reactions were plotted versus controls and Michaelis-Menten kinetics determined using GraphPad Prism version 7 (GraphPad Software, CA, USA).
# CYP9Q5 = experiment: Metabolism by recombinant CYP9Q5/CPR microsomes, LC-MS/MS
# From the text: as §1, §2
# CYP6AS5 = experiment: Metabolism by recombinant CYP6AS5/CPR microsomes, LC-MS/MS; conditions: thiacloprid hydroxylation
# From the text: All bee P450 (see Table S3 for accession numbers) and house fly NADPH-dependent cytochrome P450 reductase (CPR) (GenBank accession number Q07994) genes were obtained by gene synthesis (Geneart, CA, USA) and inserted into the pDEST8 expression vector (Invitrogen). Codon optimization of all bee genes was used to optimize expression in lepidopteran cell lines. The PFastbac1 vector with no inserted DNA was used to produce a control virus. The recombinant baculovirus DNA was constructed and transfected into Trichoplusia ni (High five cells, Thermo Fisher) using the Bac-to-Bac baculovirus expression system (Invitrogen) according to the manufacturer’s instructions. The titer of the recombinant virus was determined following protocols of the supplier. […] The protein content of samples was determined using Bradford reagent (Sigma) and bovine serum albumin (BSA) as a reference.
# as §2
# [2] = test system: bumble bees (Bombus terrestris); experiment: Bumble bee contact and oral bioassays taken together, EPA rating; conditions: depends on route of exposure
# Experimental: (§3) Acute contact insecticide assays were performed on female A. mellifera following standard methods OECD 2013 [30]. Bioassays of B. terrestris were based on the OECD guidelines developed for honeybees but with bees assayed in individual Nicot cages. Bees were starved of sucrose solution for up to 2 hr to encourage feeding during the experiment. […] Controls were fed a solution of sucrose containing a concentration of acetone matching that of the highest treatment concentration. After 4-6 hr the syringes were assessed to see if bees had consumed the insecticide-sucrose solution. Those that had not consumed all of the solution were excluded from the experiment. Mortality was assessed 48 hr after feeding and lethal concentrations (LC50 values) were calculated by probit analysis using Genstat version 16 (VSN International). For synergist bioassays, B. terrestris or A. mellifera workers were first treated with 20 μg of piperonyl butoxide or 1 μg of aminobenzotriazole applied to the dorsal thorax. Synergist bioassays included an additional control group treated only with the synergist. 1 hr after synergist application, bees were then treated with the appropriate insecticide dosage as above.
# A. mellifera = experiment: Acute contact (topical) insecticide bioassay of honeybees, with or without ABT; conditions: honeybees pretreated with ABT (1-aminobenzotriazole)
# Experimental: as §3
# [3] = test system: transgenic Drosophila expressing honeybee CYP9Q1; experiment: Insecticide bioassay of transgenic Drosophila expressing CYP9Q1; assay type: in vivo, Drosophila melanogaster; conditions: Act5C-GAL4 driven; ratio of LC50 values
# Experimental: (§4) Fly lines were made homozygous for the transgene integrations. […] LC50 values were calculated as above.
# [4] = test system: transgenic Drosophila expressing honeybee CYP9Q2; experiment: Insecticide bioassay of transgenic Drosophila expressing CYP9Q2; assay type: in vivo, Drosophila melanogaster; conditions: Act5C-GAL4 driven; ratio of LC50 values
# Experimental: as §4
# [5] = test system: transgenic Drosophila expressing honeybee CYP9Q3; experiment: Insecticide bioassay of transgenic Drosophila expressing CYP9Q3; assay type: in vivo, Drosophila melanogaster; conditions: Act5C-GAL4 driven; ratio of LC50 values
# Experimental: as §4
# [6] = test system: transgenic Drosophila expressing B. terrestris CYP9Q5; experiment: Insecticide bioassay of transgenic Drosophila expressing CYP9Q5; assay type: in vivo, Drosophila melanogaster; conditions: Act5C-GAL4 driven; ratio of LC50 values
# Experimental: as §4
# [7] = apparent value, mean ± SD (n=3), decimal commas
# [8] = hydroxylation (thiacloprid) or N-desmethylation (acetamiprid)
# Chain of CYP9Q4 (Q07994 whole entry): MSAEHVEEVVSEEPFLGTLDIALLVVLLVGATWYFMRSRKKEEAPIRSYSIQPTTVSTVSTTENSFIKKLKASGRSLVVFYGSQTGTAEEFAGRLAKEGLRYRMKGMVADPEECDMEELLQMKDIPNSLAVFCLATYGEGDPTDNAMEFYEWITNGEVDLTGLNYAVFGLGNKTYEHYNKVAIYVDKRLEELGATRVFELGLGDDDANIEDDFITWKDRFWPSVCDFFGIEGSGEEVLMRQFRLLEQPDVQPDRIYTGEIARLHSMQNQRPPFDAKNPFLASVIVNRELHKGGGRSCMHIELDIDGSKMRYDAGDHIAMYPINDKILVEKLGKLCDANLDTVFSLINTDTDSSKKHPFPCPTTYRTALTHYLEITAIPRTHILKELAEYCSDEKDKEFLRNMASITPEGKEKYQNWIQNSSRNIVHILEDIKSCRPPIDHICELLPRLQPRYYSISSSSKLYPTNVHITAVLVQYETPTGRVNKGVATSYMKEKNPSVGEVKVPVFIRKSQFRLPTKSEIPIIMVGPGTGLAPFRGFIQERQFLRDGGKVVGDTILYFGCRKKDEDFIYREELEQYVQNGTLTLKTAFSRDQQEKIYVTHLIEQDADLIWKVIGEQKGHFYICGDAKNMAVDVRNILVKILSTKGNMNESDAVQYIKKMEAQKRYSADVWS
# Chain of CYP9Q4 (A0A9B0BBT5 entry or part of it): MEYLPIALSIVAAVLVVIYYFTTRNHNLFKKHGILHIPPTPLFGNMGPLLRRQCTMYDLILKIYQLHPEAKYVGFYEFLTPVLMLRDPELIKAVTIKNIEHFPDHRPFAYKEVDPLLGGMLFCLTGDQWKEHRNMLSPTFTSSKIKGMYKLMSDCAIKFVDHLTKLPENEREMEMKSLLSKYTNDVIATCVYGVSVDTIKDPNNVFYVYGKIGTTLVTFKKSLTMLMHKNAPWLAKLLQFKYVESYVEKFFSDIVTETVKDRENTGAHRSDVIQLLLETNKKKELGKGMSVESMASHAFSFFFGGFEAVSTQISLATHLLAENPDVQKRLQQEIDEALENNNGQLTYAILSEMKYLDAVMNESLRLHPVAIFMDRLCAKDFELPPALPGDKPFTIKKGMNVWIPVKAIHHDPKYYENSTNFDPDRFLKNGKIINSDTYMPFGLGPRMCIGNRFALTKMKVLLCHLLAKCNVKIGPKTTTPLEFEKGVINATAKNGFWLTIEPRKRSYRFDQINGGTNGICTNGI
SMILES,IC50 [1] [nM],Km at 45 min (CYP9Q4; Bombus terrestris) [µM],"Vmax, thiacloprid hydroxylation (CYP9Q4; [7])",metabolism by the recombinant P450 (in words) (CYP9Q4; [8]),Km at 45 min (CYP9Q5; Bombus terrestris) [µM],"Vmax, thiacloprid hydroxylation (CYP9Q5; [7])",metabolism by the recombinant P450 (in words) (CYP9Q5; [8]),metabolism by the recombinant P450 (in words) (CYP6AS5),EPA toxicity category [2],fold more sensitive after pretreatment with ABT (A. mellifera) [fold],resistance compared to control flies without the transgene [3],resistance compared to control flies without the transgene [4],resistance compared to control flies without the transgene [5],resistance compared to control flies without the transgene [6]
N#C/N=C1\SCCN1Cc1ccc(Cl)nc1 [thiacloprid],1.1,11.8,"18,94±0,64 pmol min-1 mg-1",metabolize thiacloprid to its 5-hydroxy form,30,"4,29±0,71 pmol min-1 mg-1",metabolize thiacloprid to its 5-hydroxy form,weak activity,slightly toxic” or “practically non-toxic,–,–,–,–,–
O=[N+]([O-])NC1=NCCN1Cc1ccc(Cl)nc1 [imidacloprid],1.2,–,–,–,–,–,–,–,highly toxic,2.7,no significant differences in sensitivity,no significant differences in sensitivity,no significant differences in sensitivity,no significant differences
